From patent US10842783B2, “Avibactam and carbapenems antibacterial agents” (THE JOHNS HOPKINS UNIVERSITY, priority 2017, dated 2020)
“Also recorded” adds a separate entry of the source. Like-named read-outs stand apart in the source and are kept apart here.

Legend:
[1] = tested on: M. abscessus clinical strains; assay: Broth microdilution MIC of carbapenems with and without avibactam, twenty eight clinical isolates; format: cell-based, Mycobacterium abscessus; details: for Effect of avibactam on the MIC of the carbapenem, in words: clinical strains; for Effect of avibactam on the MIC of the carbapenem, in words / Average reduction in MICs of the carbapenems in combination with avibactam: avibactam 4 μg/mL; for Average reduction in MICs of the carbapenems in combination with avibactam: twenty eight clinical strains
Excerpt: Twenty eight unique clinical isolates of M. abscessus were used in this study. These strains were obtained de-identified from the archive of the clinical microbiology laboratory of the Johns Hopkins University Hospital per institutional ethical guidelines. They were isolated over a 10 year period, from 2005-2015, from patients that were temporally and geographically unrelated. No two isolates are from the same patient. Those displaying a high level of resistance to antibacterials used for M. abscessus infection were selected for this study. All strains obtained prior to 2014 were identified to the M. abscessus complex level using a variety of methods including 16S rDNA sequencing in conjunction with selected biochemical testing such as sodium citrate. More recent isolates (those isolated after 2014) were identified using MALDI ToF mass spectrometry in which a Bruker MicroFlex LT (MicroFlex LT) mass spectrometer and Bruker Biotyper software and existing database (version 2.0, Bruker) were employed. Sub-speciation within the M. abscessus complex, which helps to distinguish between M. abscessus sensu stricto, M. massiliense, and M. bolletii, was not done as this is not per the current standard of care at the Johns Hopkins Clinical Mycobacteriology Laboratory. Distinguishing between M. abscessus sensu stricto and M. massiliense is most often performed to guide therapy since M. massiliense is known to have a non-funtional erm gene and is therefore susceptible to macrolides. However, due to the high number of macrolide resistant M. abscessus complex isolates recovered at Johns Hopkins, most patient isolates are subjected to drug susceptibility testing, making speciation within the complex of lesser importance. Thus, the proportion of each subspecies within the M. abscessus complex for the Johns Hopkins strain collection is not known. M. abscessus ATCC 19977 was included as a reference drug-sensitive strain.
(§1) All strains were initially grown in 7H9 complete medium composed of Middlebrook 7H9 broth (Difco) supplemented with 0.5% glycerol, 10% oleic acid-albumin-dextrose-catalase and 0.05% Tween-80 at 37° C. with constant shaking. A standard broth microdilution method was used to determine MIC. Briefly, M. abscessus strains were grown as described above and these cultures, at exponential phase (A600 nm˜0.6-0.8), were used to inoculate 10^5 colony forming units (CFU) into each well of microtiter culture plates containing a carbapenem at two fold serial dilutions ranging from 256 to 0.25 μg/mL. An identical setup but with wells containing 4 μg/mL of avibactam was used to assess the effect of this agent on each carbapenem. Carbapenems studied were procured commercially from Sigma-Aldrich and include ertapenem, meropenem, imipenem, doripenem, biapenem, faropenem, tebipenem and panipenem. β-lactamase inhibitors sulbactam, tazobactam and avibactam were also procured from Sigma-Aldrich. In addition, to establish baseline antibacterial susceptibility for each strain we also determined MICs for drugs currently used to treat M. abscessus infections. They are linezolid, cefoxitin, kanamycin, ciprofloxacin, moxifloxacin, amikacin, tigecycline, imipenem, tobramycin, trimethoprim/sulfamethoxazole, and clarithromycin. M. abscessus growth was evaluated by visual inspection of pellets after 3 days of incubation (the exception being clarithromycin for which incubation was extended to 14 days) at 30° C. without shaking per CLSI guidelines. In addition to assessment in 7H9 complete medium, we also used cation adjusted Mueller-Hinton broth for MIC studies for the reference strain M. abscessus ATCC 19977. All experiments were repeated and the final data represent the average of two biological replicates.

[2] = in vivo; cited from earlier work
M. abscessus ATCC 19977 = assay: Broth microdilution MIC of carbapenems with and without β-lactamase inhibitors, reference strain; format: cell-based, Mycobacterium abscessus; details: for Minimum inhibitory concentration, 7H9 + avibactam / Minimum inhibitory concentration, CAMHB + avibactam: avibactam at fixed 4 μg/mL; for Minimum inhibitory concentration, 7H9 + sulbactam: sulbactam at fixed 4 μg/mL; for Minimum inhibitory concentration, 7H9 + tazobactam: tazobactam at fixed 4 μg/mL; for MIC: Mycobacteroides abscessus; for Ability of the β-lactamase inhibitor to reduce MICs of carbapenems, in words: inhibitor at 4 μg/mL
Procedure: as §1
We studied the utility of β-lactamase inhibitors sulbactam, tazobactam, and avibactam in restoring in vitro potencies of carbapenems against M. abscessus using the reference drug-susceptible strain ATCC 19977. We determined MICs of ertapenem, meropenem, imipenem, doripenem, biapenem, faropenem, tebipenem and panipenem alone or in the presence of the aforementioned […] β-lactamase inhibitors.

[3] = ATCC19977, 7H9 broth, drug alone, read-out: Minimum inhibitory concentration, 7H9 broth
[4] = ATCC19977, carbapenem alone, single values given, read-out: MIC of carbapenems against the drug sensitive control strain
[5] = ATCC19977, cation-adjusted Mueller-Hinton broth, drug alone, read-out: Minimum inhibitory concentration, CAMHB only
[6] = cation-adjusted Mueller-Hinton broth
[7] = with avibactam, against M. abscessus

Average reduction in MICs of the carbapenems in combination with avibactam [1] [fold]	MIC (M. abscessus ATCC 19977; [3]) [µg/mL]	MIC (M. abscessus ATCC 19977; [4]) [µg/mL]	MIC (M. abscessus ATCC 19977; [5]) [µg/mL]	Fold decrease of MIC by avibactam [1, 7]	MIC of carbapenem as reduced by avibactam [1, 7] [µg/mL]	Structure (SMILES)	Effect of avibactam on the MIC of the carbapenem, in words [1]	Average peak plasma concentration [2] [µg/mL]	Minimum inhibitory concentration, 7H9 + avibactam (M. abscessus ATCC 19977; 7H9 broth) [µg/mL]	Minimum inhibitory concentration, 7H9 + sulbactam (M. abscessus ATCC 19977; 7H9 broth) [µg/mL]	Minimum inhibitory concentration, 7H9 + tazobactam (M. abscessus ATCC 19977; 7H9 broth) [µg/mL]	Minimum inhibitory concentration, CAMHB + avibactam (M. abscessus ATCC 19977; [6]) [µg/mL]	Ability of the β-lactamase inhibitor to reduce MICs of carbapenems, in words (M. abscessus ATCC 19977)	Half-life [2] [h]	MIC (M. abscessus ATCC 19977; ATCC19977, read-out: Minimum inhibitory concentration, 7H9 broth) [µg/mL]
8	64 to 128	128	64 to 128	–	–	CC(=N)N1CC[C@H](SC2=C(C(=O)O)N3C(=O)[C@H]([C@@H](C)O)[C@H]3C2)C1 [Panipenem, panipenem]	levels that are therapeutically relevant; also recorded: levels achievable in the blood	~22	8 to 16	16 to 32	32 to 64	8 to 16	–	–	–
3	32 to 64	64	64 to 128	–	–	C[C@@H](O)[C@H]1C(=O)N2C(C(=O)O)=C([C@H]3CCCO3)S[C@H]12 [Faropenem, faropenem]	least effective	–	8 to 16	16 to 32	32 to 64	16 to 32	–	–	–
–	> 256	–	> 256	–	–	NC(=O)[C@@H]1CC[C@@H]2CN1C(=O)N2OS(=O)(=O)O [Avibactam, avibactam]	–	–	–	–	–	–	most active	–	–
–	> 64	–	–	–	–	C[C@]1(Cn2ccnn2)[C@H](C(=O)O)N2C(=O)C[C@H]2S1(=O)=O [Tazobactam, tazobactam]	–	–	–	–	–	–	failed to reduce the MICs; also recorded: failed to observe significant reduction in MIC	–	–
> 13	64 to 128	128	128 to 256	–	–	C[C@@H](O)[C@H]1C(=O)N2C(C(=O)O)=C(S[C@@H]3CN[C@H](C(=O)Nc4cccc(C(=O)O)c4)C3)[C@H](C)[C@H]12 [Ertapenem, ertapenem]	levels that are therapeutically relevant; also recorded: levels achievable in the blood	~150	4 to 8	>64	32 to 64	8 to 16	–	~4	–
–	–	–	–	–	–	O=C(O)[C@H]1/C(=C/CO)O[C@@H]2CC(=O)N21 [clavulanate]	–	–	–	–	–	–	failed to observe significant reduction in MIC	–	–
> 38	128 to 256	256	128 to 256	32-64 fold	4 to 8	C[C@@H](O)[C@H]1C(=O)N2C(C(=O)O)=C(SC3CN(C4=NCCS4)C3)[C@H](C)[C@H]12 [Tebipenem, tebipenem]	levels that are therapeutically relevant; also recorded: largest reduction in MIC	~8	4 to 8	>64	>64	8 to 16	–	1	–
6	8 to 16	16	16 to 32	–	–	C[C@@H](O)[C@H]1C(=O)N2C(C(=O)O)=C(S[C@@H]3CN[C@H](CNS(N)(=O)=O)C3)[C@H](C)[C@H]12 [Doripenem, doripenem]	–	–	2 to 4	8 to 16	8 to 16	4 to 8	–	–	–
2	4 to 8	8	8 to 16	–	–	C[C@@H](O)[C@H]1C(=O)N2C(C(=O)O)=C(SCCN=CN)C[C@H]12 [Imipenem, imipenem]	–	–	2 to 4	4 to 8	2 to 4	4 to 8	–	–	–
6	8 to 16	16	32 to 64	–	–	C[C@@H](O)[C@H]1C(=O)N2C(C(=O)O)=C(S[C@@H]3CN[C@H](C(=O)N(C)C)C3)[C@H](C)[C@H]12 [Meropenem, meropenem]	–	–	2 to 4	8 to 16	8 to 16	4 to 8	–	–	–
–	–	–	–	–	–	CC1(C)[C@H](C(=O)O)N2C(=O)C[C@H]2S1(=O)=O [Sulbactam, sulbactam]	–	–	–	–	–	–	failed to reduce the MICs; also recorded: failed to observe significant reduction in MIC	–	> 64
5	8 to 16	16	16 to 32	–	–	C[C@@H](O)[C@H]1C(=O)N2C(C(=O)[O-])=C(SC3Cn4cnc[n+]4C3)[C@H](C)[C@H]12 (some centres unmarked) [Biapenem, biapenem]	–	–	2 to 4	4 to 8	8 to 16	8 to 16	–	–	–
